Laboratory results as given in US10526278B2, “Inhibitors of quorum sensing receptor LasR” (priority 2017, dated 2020).

What was measured:
P. aeruginosa PAO1 [1] = experiment: Elastase B production in P. aeruginosa PAO1 culture supernatants (elastin-Congo red); type: cell-based, Pseudomonas aeruginosa; conditions: compound alone 100 μM; % elastase relative to DMSO; FIG. 12A
Procedure: FIG. 12A is a graph comparing inhibition of elastase (as % relative to DMSO) for certain compounds of the invention. The amount of indicated compound added was 100 μM. M64 alone or in combination was added in the amount of 20 μM. The assay is conducted as described in Welsh et al. (2016) for compounds shown as well as certain compounds in combination with compound M-64 (Starkey, M. et al. (2014)):
The amount of elastase B in P. aeruginosa culture supernatants was measured following a reported protocol (Welsh et al., 2017 and Geske et al., 2007b) with modifications. A 10 mL overnight culture of P. aeruginosa PAO1 was grown for 16 hr. An inoculating culture was prepared by diluting the overnight culture 1:100 into freshly prepared assay medium, and 2 mL aliquots of this subculture were added to each test tube (0.5% DMSO, final). The cultures were grown for 17 hr, and the final cell density measured by reading OD600. […]
To quantify elastase B activity, the undigested elastin was pelleted by centrifugation of the assay plate at […] for 10 min, after which […] of the supernatant was transferred to a new, clear 96-well plate, and the absorbance at 490 nm measured. Media background absorbance (measured from a “no bacteria” control) was subtracted, the resulting values growth normalized by dividing by the final OD600, and the data plotted relative to a DMSO-treated positive control.

LasR [2] = molecular target: T1, LasR (Pseudomonas aeruginosa, UniProt P25084); experiment: LasR activation (agonism) assay, methods of Moore et al. 2015; type: cell-based; conditions: at high concentrations; FIGS. 8B, 9B, 10B
T1 sequence (P25084 whole entry): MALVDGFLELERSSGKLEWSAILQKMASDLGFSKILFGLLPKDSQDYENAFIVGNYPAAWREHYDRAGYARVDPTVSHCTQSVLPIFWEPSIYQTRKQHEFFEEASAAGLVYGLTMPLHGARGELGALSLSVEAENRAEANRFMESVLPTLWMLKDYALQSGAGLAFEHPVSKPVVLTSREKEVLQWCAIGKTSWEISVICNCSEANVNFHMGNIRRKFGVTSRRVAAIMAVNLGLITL
From the text: (§1) Methods for assessing LasR activation and inhibition are known in the art. More specifically methods as described in Moore et al. 2015 are used herein to assess activation and inhibition.
FIGS. 8A and 8B compare % LasR inhibition (8A) with % LasR activation (8B) for control compound V-06-018.
FIGS. 9A and 9B compare % LasR inhibition (9A) with % LasR activation (9B) for compound 33.
FIGS. 10A and 10B compare % LasR inhibition (10A) with % LasR activation (10B) for compound 32 (thiophene analog of compound 33).

LasR [3] = molecular target: T1, LasR; type: cell-based; conditions: measured vs 25 nM OdDHL
From the text: as §1
IC50 is the concentration of an inhibitor where the response or binding is reduced by half (half maximal inhibitory concentration).

P. aeruginosa PAO1 [4] = conditions: earlier reports; cited from earlier work

Question: For CCCCCCCCCC(=O)CC(=O)Nc1ccccc1 [Compound V-06-018], which “inhibition of production of virulence factor elastase” value (P. aeruginosa PAO1 [1]) is on record?
Answer: The value was “little or no inhibition”.

Question: What about the “% LasR activation” value (LasR [2]) of the same compound?
Answer: The value was “does not exhibit LasR activation”.

Question: And the “Maximum Inhibition (95% CL)” value (LasR [3])?
Answer: The value was 87 (91-85) %.

Question: What about the IC50 (LasR [3]; read-out: IC50 (95% CL)) of the same compound?
Answer: Its IC50 is 2000 nM.

Question: And the “inhibition of elastase production (previously shown)” value (P. aeruginosa PAO1 [4])?
Answer: Its value is “previously been shown to inhibit elastase production”.
